Test results reported in patent US12180226B2, “Spirotricycle RIPK1 inhibitors and methods of uses thereof” (Merck Sharp & Dohme LLC, priority 2021, dated 2024).

Biological target: RIPK1 (recombinant GST-RIPK1 kinase domain, residues 1-327) (Homo sapiens (Human), UniProt Q13546)
Test: RIPK1-ADP-Glo Enzymatic Assay
Type: biochemical
Details: ADP-Glo; 25 nM GST-RIPK1, 300 μM ATP; assay lower limit ~25 nM; read-out: RIPK1 V0 Ec50
How it was run: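 ADP-Glo luminescence read after 150 min kinase reaction (300 μM ATP, 3 μM dephosphorylated MBP) using 25 nM Sf21-made GST-kinase domain (1-327), preincubated 30 min with compound. HEPES pH 7.3, 1% DMSO; ten-point 1:3 series from 100000 nM, EC50 via four-parameter sigmoidal regression.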

Chain of RIPK1 (recombinant GST-RIPK1 kinase domain, residues 1-327) (Q13546 1-327): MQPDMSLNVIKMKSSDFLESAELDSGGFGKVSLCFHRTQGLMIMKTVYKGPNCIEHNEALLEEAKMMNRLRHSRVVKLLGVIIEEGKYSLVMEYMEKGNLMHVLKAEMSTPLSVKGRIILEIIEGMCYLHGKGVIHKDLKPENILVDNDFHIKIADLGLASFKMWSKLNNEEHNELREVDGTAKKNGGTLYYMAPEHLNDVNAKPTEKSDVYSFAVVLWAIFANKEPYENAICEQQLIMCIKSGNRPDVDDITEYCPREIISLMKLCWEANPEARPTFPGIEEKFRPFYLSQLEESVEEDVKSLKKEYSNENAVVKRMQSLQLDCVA

Compared with `N#Cc1cc(F)cc(C(=O)N2CCC3(CC2)O[C@@H]2CC[C@@H](c4cc(F)cc(F)c4)N2C3=O)c1` [Example 5.15, 3-((5′S,7a′R)-5′-(3,5-difluorophenyl)-3′-oxo-tetrahydro-3′H-spiro [piperidine-4,2′-pyrrolo-[2,1-b]oxazole]-1-carbon-yl)-5-fluorobenzonitrile], `N#Cc1cccnc1C(=O)N1CCC2(CC1)O[C@@H]1CC[C@@H](c3cc(F)cc(F)c3)N1C2=O` [Example 6.103, 2-[(5′S,7a′R)-5′-(3,5-difluorophenyl)-3 oxotetrahydro-1H,3′H-spiro[piperidine-4,2′-pyrrolo[2,1-b][1,3]-oxazole]-1-carbonyl]-pyridine-3-carbonitrile] is 9.6-fold higher in EC50: 96.8 nM for the first, 934 nM for the second. The first is the more potent here.

`Cn1ccc(C(=O)N2CCC3(CC2)O[C@@H]2CC[C@@H](c4cc(F)cc(F)c4)N2C3=O)n1` [Example 5.39, (5′S,7a′R)-5′-(3,5-difluoro-phenyl)-1-(1-methyl-1H-pyrazole-3-carbonyl)tetra-hydro-3′H-spiro[piperi-dine-4,2′-pyrrolo[2,1-b]oxazol]-3′-one] and `Cc1nocc1C(=O)N1CCC2(CC1)O[C@@H]1CC[C@@H](c3cc(F)cc(F)c3)N1C2=O` [Example 5.33, (5′S,7a′R)-5′-(3,5-difluoro-phenyl)-1-(3-methylisoxa-zole-4-carbonyl)tetrahydro-3′H-spiro[piperidine-4,2′-pyrrolo[2,1-b]oxazol]-3′-one] are within 1.5-fold of each other in EC50: 172 nM for the first, 189 nM for the second.

First: O=C(c1ccccc1OC(F)F)N1CCC2(CC1)O[C@@H]1CC[C@@H](c3cc(F)cc(F)c3)N1C2=O [Example 6.61, (5′S,7a′R)-1-[2-(difluoromethoxy)-benzene-1-carbonyl]-5′-(3,5-difluorophen-yl)tetrahydro-3′H-spiro[piperidine-4,2′-pyrrolo[2,1-b][1,3]-oxazol]-3′-one]
Second: C#Cc1ccccc1C(=O)N1CCC2(CC1)O[C@@H]1CC[C@@H](c3cc(F)cc(F)c3)N1C2=O [Example 5.23, (5′S,7a′R)-5′-(3,5-difluoro-phenyl)-1-(2-ethynyl-benzoyl)tetrahydro-3′H-spiro[piperidine-4,2′-pyrrolo[2,1-b]oxazol]-3′-one]
The EC50 of the first is 1.8-fold higher: 261 nM for the first, 143 nM for the second.

`O=C1N2[C@@H](CC[C@H]2c2ccccc2)OC12CCN(c1ncc(-c3cnco3)cc1F)CC2` [Example 21.5, (5′S,7a′R)-1-[3-fluoro-5-(1,3-oxazol-5-yl)pyridin-2-yl]-5′-phenyltetrahydro-3′H-spiro[piperidine-4,2′-pyrrolo[2,1-b][1,3]oxazol]-3′-one] and `O=C1N2[C@@H](CC[C@H]2c2ccccc2)OC12CCN(c1ncnc3c(F)cnn13)CC2` [Example 4.233, (5′S,7a′R)-1-(8-fluoropyrazolo[1,5-a] [1,3,5]triazin-4-yl)-5′-phenyltetrahydro-3′H-spiro[piperidine-4,2′-pyrrolo[2,1-b] [1,3]oxazol]-3′-one] cannot be ordered by EC50: under 25 nM for the first, under 25 nM for the second.

First: CC(C)(C)OC(=O)c1ccc(N2CCC3(CC2)O[C@@H]2CC[C@@H](c4ccccc4)N2C3=O)nc1 [Example 4.198, tert-butyl 6-[(5′S,7a′R)-3′-oxo-5′-phenyltetrahydro-1H,3′H-spiro[piperidine-4,2′-pyrrolo[2,1-b] [1,3]oxazol]-1-yl]pyridine-3-carboxylate]
Second: O=C1N2[C@@H](CC[C@H]2c2ccccc2)OC12CCN(c1ccc(C3CC3)cn1)CC2 [Example 11.19, (5′S,7a′R)-1-(5-cyclopropylpyridin-2-yl)-5′-phenyltetrahydro-3′H-spiro[piperidine-4,2′-pyrrolo[2,1-b][1,3]oxazol]-3′-one]
The EC50 of the first is 2.5-fold lower: 249 nM for the first, 624 nM for the second. The first is the more potent here.

`O=C1N2[C@H](OC13CCN(c1ccnc4c(F)cnn14)CC3)[C@@H](F)C[C@H]2c1ccccc1` [Example 9.1, (5′S,7′S,7a′R)-7′-Fluoro-1-(3-fluoropyrazolo[1,5-a]pyrimidin-7-yl)-5′-phenyltetrahydro-3′H-spiro[piperidine-4,2′-pyrrolo[2,1-b]oxazol]-3′-one] and `N#Cc1cccc([C@@H]2CC[C@H]3OC4(CCN(c5ccnc6c(F)cnn56)CC4)C(=O)N32)c1F` [Example 20.5, 2-fluoro-3-[(5′S,7a′R)-1-(3-fluoropyrazolo[1,5-a]pyrimidin-7-yl)-3′-oxotetrahydro-3′H-spiro[piperidine-4,2′-pyrrolo[2,1-b][1,3]oxazol]-5′-yl]benzonitrile] cannot be ordered by EC50: under 25 nM for the first, under 25 nM for the second.

`O=C1N2[C@@H](CC[C@H]2c2cc(F)cc(F)c2)OC12CCN(c1cc(-c3cnn(C(F)F)c3)ncn1)CC2` [Example 10.1, (5′S,7a′R)-1-(6-(1-(difluoromethyl)-1H-pyrazol-4-yl)pyrimidin-4-yl)-5′-(3,5-difluorophenyl) tetrahydro-3′H-spiro[piperidine-4,2′-pyrrolo[2,1-b]oxazol]-3′-one] and `O=C1N2[C@@H](CC[C@H]2c2cc(F)cc(F)c2)OC12CCN(c1cc(-c3ccccc3)ncn1)CC2` [Example 4.13, (5′S,7a′R)-5′-(3,5-difluorophenyl)-1-(6-phenylpyrimidin-4-yl)tetrahydro-3′H-spiro[piperidine-4,2′-pyrrolo[2,1-b] [1,3]oxazol]-3′-one] cannot be ordered by EC50: under 25 nM for the first, under 25 nM for the second.

First: O=C(c1ccccc1)N1CCC2(CC1)O[C@@H]1CC[C@@H](c3cc(F)ccc3F)N1C2=O [Example 7.2, (5′S,7a′R)-1-(benzenecarbonyl)-5′-(2,5-difluorophenyl)tetrahydro-3′H-spiro[piperidine-4,2′-pyrrolo[2,1-b][1,3]oxazol]-3′-one]
Second: COc1ccc([C@@H]2CC[C@H]3OC4(CCN(C(=O)c5ccccc5)CC4)C(=O)N32)cc1 [Example 17.8, (5′S,7a′R)-1-benzoyl-5′-(4-methoxyphenyl)tetrahydro-3′H-spiro[piperidine-4,2′-pyrrolo[2,1-b]oxazol]-3′-one]
The EC50 of the first is lower: under 25 nM for the first, 49 nM for the second.

`N#Cc1cc(F)cc([C@@H]2CC[C@H]3OC4(CCN(c5ccnc6c(F)cnn56)CC4)C(=O)N32)c1` [Example 4.121, 3-fluoro-5-[(5′S,7a′R)-1-(3-fluoropyrazolo[1,5-a]pyrimidin-7-yl)-3′-oxotetrahydro-3′H-spiro[piperidine-4,2′-pyrrolo[2,1-b] [1,3]oxazol]-5′-yl]benzonitrile] and `O=C(c1ccc2sncc2c1)N1CCC2(CC1)O[C@@H]1CC[C@@H](c3cc(F)cc(F)c3)N1C2=O` [Example 6.65, (5′S,7a′R)-1-(1,2-benzothiazole-5-carbonyl)-5′-(3,5-difluorophenyl)tetra-hydro-3′H-spiro [piperidine-4,2′-pyrrolo[2,1-b][1,3]-oxazol]-3′-one] cannot be ordered by EC50: under 25 nM for the first, under 25 nM for the second.

`O=C1N2[C@@H](CC[C@H]2c2ccccc2)SC12CCN(c1ccnc3ccnn13)CC2` [Example 4.116, (5′S,7a′R)-5′-phenyl-1-(pyrazolo[1,5-a]pyrimidin-7-yl)tetrahydro-3′H-spiro[piperidine-4,2′-pyrrolo[2,1-b]thiazol]-3′-one] and `NC(=O)c1ccc(N2CCC3(CC2)O[C@@H]2CC[C@@H](c4ccccc4)N2C3=O)n2ncnc12` [Example 4.212, 5-[(5′S,7a′R)-3′-oxo-5′-phenyltetrahydro-1H,3′H-spiro[piperidine-4,2′-pyrrolo[2,1-b] [1,3]oxazol]-1-yl] [1,2,4]triazolo[1,5-a] pyridine-8-carboxamide] cannot be ordered by EC50: under 25 nM for the first, under 25 nM for the second.

Compared with `N#Cc1ccc(N2CCC3(CC2)C[C@@H]2OC[C@@H](c4ccccc4)N2C3=O)c(F)c1` [Example 11.3, 3-fluoro-4-[(3′R,7a′S)-5′-oxo-3′-phenyltetrahydro-1H,5′H-spiro[piperidine-4,6′-pyrrolo[2,1-b][1,3]oxazol]-1-yl]benzonitrile], `C#Cc1cccc(C(=O)N2CCC3(CC2)O[C@@H]2CC[C@@H](c4ccccc4)N2C3=O)c1` [Example 6.141, (5′S,7a′R)-1-(3-ethynylbenzene-1-carbonyl)-5′-phenyl-tetrahydro-3′H-spiro [piperidine-4,2′-pyrrolo[2,1-b][1,3]oxazol]-3′-one] is lower in EC50: 66.9 nM for the first, under 25 nM for the second. The second is the more potent here.

First: O=C(c1cccc(C2CC2)c1)N1CCC2(CC1)O[C@@H]1CC[C@@H](c3cc(F)cc(F)c3)N1C2=O [Example 5.62, (5′S,7a′R)-1-(3-cyclo-propylbenzoyl)-5′-(3,5-difluorophenyl)tetrahydro-3′H-spiro[piperidine-4,2′-pyrrolo[2,1-b]oxazol]-3′-one]
Second: CC(C)(O)C#Cc1ccc(C(=O)N2CCC3(CC2)O[C@@H]2CC[C@@H](c4cc(F)cc(F)c4)N2C3=O)cc1 [Example 5.26, (5′S,7a′R)-5′-(3,5-difluoro-phenyl)-1-(4-(3-hydroxy-3-methylbut-1-yn-1-yl)-benzoyl)tetrahydro-3′H-spiro[piperidine-4,2′-pyrrolo[2,1-b]oxazol]-3′-one]
The EC50 of the first is lower: under 25 nM for the first, 737 nM for the second. The first is the more potent here.

Compared with `O=C(c1cccc(-c2ccccc2)n1)N1CCC2(CC1)O[C@@H]1CC[C@@H](c3cc(F)cc(F)c3)N1C2=O` [Example 6.97, (5′S,7a′R)-5′-(3,5-difluorophenyl)-1-(6-phenylpyridine-2-carbonyl)tetrahydro-3′H-spiro[piperidine-4,2′-pyrrolo[2,1-b] [1,3]oxazol]-3′-one], `O=C(c1cnc(C(F)F)cn1)N1CCC2(CC1)O[C@@H]1CC[C@@H](c3cc(F)cc(F)c3)N1C2=O` [Example 6.84, (5′S,7a′R)-1-[5-(difluoromethyl)pyr-azine-2-carbonyl]-5′-(3,5-difluorophenyl)-tetrahydro-3′H-spiro [piperidine-4,2′-pyrrolo[2,1-b][1,3]-oxazol]-3′-one] is higher in EC50: under 25 nM for the first, 405 nM for the second.

Compared with `O=C1N2[C@@H](CC[C@H]2c2ccccc2)OC12CCN(c1ncnc3c1COC3)CC2` [Example 4.222, (5′S,7a′R)-1-(5,7-dihydrofuro[3,4-d]pyrimidin-4-yl)-5′-phenyltetrahydro-3′H-spiro[piperidine-4,2′-pyrrolo[2,1-b] [1,3]oxazol]-3′-one], `O=C1N2[C@@H](CC[C@H]2c2ccccc2)OC12CCN(c1cc(-n3cccn3)ncn1)CC2` [Example 4.174, (5′S,7a′R)-5′-phenyl-1-[6-(1H-pyrazol-1-yl)pyrimidin-4-yl]tetrahydro-3′H-spiro[piperidine-4,2′-pyrrolo[2,1-b] [1,3]oxazol]-3′-one] is lower in EC50: 57.3 nM for the first, under 25 nM for the second. The second is the more potent here.
